Data set [1] has as its system patients and healthy volunteers. The conditions noted are these: over 900 patients and healthy volunteers. From the text:
GLA is a fully synthetic TLR4 agonist, which has been examined in over 900 patients and healthy volunteers as an adjuvant with NY-ESO-1 protein and with infectious agent antigens such as in flu vaccines. […] A higher Mug dose cohort is currently being examined in this Phase 1 trial.

Data set [2] has as its system HSV. The conditions noted are these: continuous suppressive administration, early intervention; cited from earlier work.

Regarding `CCCCCCCCCCCCCC(=O)O[C@H](CCCCCCCCCCC)CC(=O)O[C@@H]1[C@@H](NC(=O)C[C@H](CCCCCCCCCCC)OC(=O)CCCCCCCCCCCCC)[C@H](OC[C@H]2O[C@H](O)[C@H](NC(=O)C[C@H](O)CCCCCCCCCCC)[C@@H](OC(=O)C[C@H](O)CCCCCCCCCCC)[C@@H]2O)O[C@H](CO)[C@H]1OP(=O)(O)O` [GLA, glucopyranosyl lipid A], the safety profile result in data set [1] is on record as “established safety profile”.

On to `CC(C)[C@H](N)C(=O)OCCOCn1cnc2c(=O)[nH]c(N)nc21` [Valacyclovir], for which, in data set [2], the “reduction of HSV transmission” value is listed as “less than 50%”.

Source of the values: patent US20170196954A1, “PRIME-BOOST REGIMENS WITH A TLR4 AGONIST ADJUVANT AND A LENTIVIRAL VECTOR” (priority 2014, published 2017).
